The results in this text go back to patent US20230026869A1, “CRYSTAL FORM OF NUCLEOPROTEIN INHIBITOR AND USE THEREOF” (CHIA TAI TIANQING PHARMACEUTICAL GROUP CO., LTD., priority 2019, published 2023).

Structures are written as SMILES. A value given as a limit tells only on which side of the number the result lay.

Data set [1] can be described thus: Metabolic stability in liver microsomes of cynomolgus monkeys. In kind it is in vitro ADME. Conditions: cynomolgus monkey. Here is the method:
(§1) Objective: The metabolic stability of the tested compound of formula (I) in liver microsomes of rats, beagle dogs and cynomolgus monkeys was determined. […]
On the technique in general: Liver microsomes are a subcellular fraction often used to study metabolism.

Data set [2] is described as follows: Pharmacokinetic study in Balb/c mice by oral administration and intravenous injection. The format is in vivo. To be noted: mouse, Balb/c female mice, plasma. Here is the method:
Pharmacokinetic Study of the Test Compound in Balb/c Mice by Oral Administration and Intravenous Injection: The test compound was mixed with a solution containing dimethyl sulfoxide (101), polyethylene glycol 400 (600%) and water (300), and the mixture was vortexed and sonicated to prepare a 0.2 mg/mL clear solution, which was filtered through a millipore filter for later use. Balb/c female mice aged 7 to 10 weeks were intravenously injected with the candidate compound solution at a dose of 1 mg/kg. The test compound was mixed with an aqueous solution containing 10% polyoxyethylene stearate, and the mixture was vortexed and sonicated to prepare a 0.3 mg/mL clear solution for later use. Balb/c female mice aged 7 to 10 weeks were orally administered with the candidate compound solution at a dose of 3 mg/kg. Whole-blood was collected and plasma was prepared. Drug concentration was analyzed by LC-MS/MS and pharmacokinetic parameters were calculated with Phoenix WinNonlin software.

Data set [3] can be described thus: Metabolic stability in liver microsomes of SD rats. The format is in vitro ADME. To be noted: rat. As to the method:
as §1

`CC1(NC(=O)C(=O)c2c(Cl)c(C(=O)Nc3cc(F)c(F)c(F)c3)c3n2CCC3)CCC(CC(=O)O)CC1` (centres unmarked) [Compound of formula (I)]: the microsomal CLint at 1 μM in data set [1] (microsomes) is less than 9.6 µL/min/mg; in data set [3] (SD, microsomes), less than 9.6 µL/min/mg. Besides, the CLint scaled at 1 μM is less than 13 mL/min/kg in data set [1] (Cynomolgus monkeys liver microsomes) and less than 17.3 mL/min/kg in data set [3] (SD rats liver microsomes). For the same molecule, the half-life at 1 μM is more than 2.42 h in data set [1] (Cynomolgus monkeys liver microsomes, 1 μM compound, 0.5 mg/mL) and more than 2.42 h in data set [3] (SD rats liver microsomes, 1 μM compound, 0.5 mg/mL). Also, the AUC in data set [2] (3 mg/kg, PO 3 mpk, read-out: Area under the plasma concentration-time curve AUC) was 2.27 µM·h. Besides, the Cmax in data set [2] (3 mg/kg, PO 3 mpk, read-out: Peak concentration Cmax) was 1480 nM. For the same molecule, the Tmax in data set [2] (3 mg/kg, PO 3 mpk, read-out: Peak time Tmax) was determined as 0.5 h. Further, the bioavailability in data set [2] (3 mg/kg, PO 3 mpk vs IV 1 mg/kg, read-out: Bioavailability (F %)) was 51%. Also, the Vd in data set [2] (IV 1 mg/kg, read-out: Apparent volume of distribution (Vdss)) was determined as 3.1 L/kg. Further, in data set [2] (IV 1 mg/kg, read-out: Area under the plasma concentration-time curve AUC0-24 h), the AUC(0-t) worked out at 1.49 µM·h. For the same molecule, in data set [2] (IV 1 mg/kg, read-out: Clearance (CL)), the clearance came to 20 mL/min/kg. Besides, the half-life in data set [2] (IV 1 mg/kg, read-out: Half-life T1/2 (converted)) is 1.95 h.

One may read the microsomal CLint as the rate of metabolic loss divided by the concentration. A word on the CLint scaled: it is the capacity of the preparation to metabolise the compound, expressed as a volume cleared per time. Usually Tmax stands for the time from dosing to the highest level. Broadly, the bioavailability is the share of a dose that reaches the circulation, judged against a reference dose that is usually intravenous.
